Series [1] deals with α-glucosidase (Saccharomyces cerevisiae, UniProt P53341). The series is classed as biochemical. As to the method: The assay of α-glucosidase inhibitory activity was carried out according to the reported method, with minor modifications. All of the assays were performed under 0.01 M potassium phosphate buffer (pH 7). Enzyme solutions were prepared to give 2.0 Units/mL in 2 mL buffer solution. Test samples were dissolved in dimethyl sulphoxide (DMSO) to give an initial concentration of 4000 μM/L. One-hundred fifty-five microliters of phosphate buffer, 10 μL of test samples, and 10 μL of diluted enzyme solution were mixed in each well of a 96-well microtiter plate. After 20 min incubation at 37 °C, 25 μL of substrate (p-nitrophenyl-α-D-glucopyranoside, 1.5 mg/mL) was added to each well to begin the enzymatic reaction. The reaction was monitored spectrophotometrically by measuring the absorbance at 410 nm for a 1 min interval. […] All measurements were done in triplicate from two independent experiments. The reported IC50 was the average value of two independent experiments.
α-glucosidase, sequence (P53341 whole entry): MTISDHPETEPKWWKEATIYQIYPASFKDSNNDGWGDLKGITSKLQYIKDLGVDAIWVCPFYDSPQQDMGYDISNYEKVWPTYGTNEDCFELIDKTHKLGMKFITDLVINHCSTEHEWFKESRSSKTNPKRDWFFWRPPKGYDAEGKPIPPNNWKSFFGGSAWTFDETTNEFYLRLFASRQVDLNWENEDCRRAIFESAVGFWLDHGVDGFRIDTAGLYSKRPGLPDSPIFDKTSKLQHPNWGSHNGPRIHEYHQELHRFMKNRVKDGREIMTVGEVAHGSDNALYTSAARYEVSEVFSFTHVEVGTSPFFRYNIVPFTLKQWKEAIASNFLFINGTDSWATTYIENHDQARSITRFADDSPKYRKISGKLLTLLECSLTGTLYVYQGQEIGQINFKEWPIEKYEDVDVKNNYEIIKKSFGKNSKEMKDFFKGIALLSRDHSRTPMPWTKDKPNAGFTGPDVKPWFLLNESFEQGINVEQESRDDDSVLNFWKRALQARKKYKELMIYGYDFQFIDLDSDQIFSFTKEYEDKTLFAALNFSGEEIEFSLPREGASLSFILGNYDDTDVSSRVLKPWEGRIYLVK

The subject of series [2] is rat pituitary adenoma GH3 cell lines. As to the kind of experiment: MTT cytotoxicity assay, GH3 cells. Conditions: MTT method, read-out: Cytotoxicity IC50 against GH3 cell lines. The series is classed as cell-based. On the procedure:
(§1) The cytotoxic activities against rat pituitary adenoma MMQ and GH3 cell lines were evaluated by MTT assay following the previous process. Briefly, MMQ and GH3 cell lines were seeded in 96-well plates (Corning, New York, NY, USA) at a density of 5 × 10^4 cells per well. Then, 10 μL of MTT reagent was added to each well and incubated at 37 °C with 5% CO2 for 4 h. Subsequently, 100 μL of acidified isopropyl alcohol was added. Then the OD value was measured at 450 nm using a microplate reader and the cell proliferation rate relative to the control was calculated. The IC50 was analyzed by SPSS 13.0 (SPSS, Chicago, IL, USA). Rat normal pituitary cells were used as a positive control.
A general note: Tetrazolium assays rely on reduction of a dye to a coloured formazan, in cell work by metabolically active cells.

The test system of series [3] is rat prolactinoma MMQ cell lines. Kind of series: MTT cytotoxicity assay, MMQ cells. The series is classed as cell-based. Conditions: MTT method, read-out: Cytotoxicity IC50 against MMQ cell lines. On the procedure: as §1
Series [4] has as its system rat normal pituitary cells (RPC). Kind of series: MTT cytotoxicity assay, rat normal pituitary cells. The series is classed as cell-based. Conditions: tumour cell IC50 compared with RPC IC50. On the procedure:
as §1

Series [5] in a line: MTT cytotoxicity assay, rat normal pituitary cells. The class given is cell-based. Conditions: rat, rat normal pituitary cells (RPC); MTT method; normal cells used as control; read-out: Cytotoxicity IC50 against rat normal pituitary cells (RPC). On the procedure: as §1

Take `COc1cc(O)cc2c1C(=O)O[C@H](C)CCCCC/C=C/2` [Compound 16, (E)-9-etheno-lasiodiplodin]: the “α-Glucosidase inhibitory effect, fold better than acarbose” value in series [1] is “seven-fold”.
By IC50 is commonly meant the point on the concentration scale where inhibition reaches its midpoint. For `C[C@@H]1CCCCCCCC(=O)Cc2cc(O)cc(O)c2C(=O)O1` [Compound 17, (3R)-nordinone], in series [1], the “α-Glucosidase inhibitory effect, fold better than acarbose” value was “seven-fold”. Further, the values for the IC50 in series [2], in series [3] and in series [5] were 12.3 µM, 10.1 µM and 100 µM, respectively. The “Cytotoxicity against GH3/MMQ cells, fold better than against RPC cells” value in series [4] was “ten-fold”.
In the case of `C[C@H]1CCC(=O)CCCCc2cc(O)cc(O)c2C(=O)O1` [Compound 8, (3S)-6-oxo-de-O-methyllasiodiplodin], the IC50 amounted to 21.4 µM in series [2], 13.6 µM in series [3] and 143 µM in series [5]. For the same compound, the “Cytotoxicity against GH3/MMQ cells, fold better than against RPC cells” value in series [4] was “seven-fold”.
As for `C[C@@H]1CCCCCCCc2cc(O)cc(O)c2C(=O)O1` [Compound 9, (3R)-de-O-methyllasiodiplodin], the figures for the 50% inhibitory concentration (IC50) in series [2], in series [3] and in series [5] were 6.44 µM, 6.58 µM and 6.94 µM, respectively.

The values above are taken from article PMC5334615, “Induction of Diverse Bioactive Secondary Metabolites from the Mangrove Endophytic Fungus Trichoderma sp. (Strain 307) by Co-Cultivation with Acinetobacter johnsonii (Strain B2)” (Marine Drugs, 2017).
